# Data reported in patent US6506913B2, “Dimethylfurancarboxyanilide derivatives” (Sankyo Company, Limited, priority 1994, dated 2003).
# System: Serpula lacrymans
# Test: Wood preservation test JIS A-9201 (1991): impregnated Sugi sapwood, weathered, forcedly decayed for 12 weeks
# Type: cell-based
# Conditions: impregnant concentration 0.005 % in methanol, weathering 10 cycles, 20° C., mean of 9 samples
# Experimental: (1) According to the test method for wood preservation described in the Japan Industrial Standards [JIS A-9201 (1991)], each of the test compounds was dissolved to a defined concentration in methanol. The solution was impregnated under a reduced pressure into a Sugi (Japanese cedar) sapwood (2×2×1) cm and then air-dried. Weathering test was repeated 10 times in which one cycle of the treatment was stirring in water for 8 hours, and then heating for 16 hours at 60° C. The test material was placed on the flora of Serpula lacrymans which had been previously grown on a quartz sand medium (malt extract 2%, glucose 1%, peptone 0.3% and yeast 0.2%), and forcedly decayed at 20° C. for 12 weeks. From the difference between the dry weight of the test material before the test and that after test, the degree of decrease in weight was obtained. […] The test was carried out by use of 9 samples for each condition, and the values shown in Table 2 are the mean values calculated from 9 samples.
row,SMILES,Mean weight decrease by decay (%)
1,"Clc1ccc(OCOCC#CI)cc1 [Control compound 1, 4-Chlorophenyl-3-iodopropargylformal, reference compound]",18.6%
2,"CCc1cccc(NC(=O)c2cc(C)oc2C)c1 [Example 20, 2,5-Dimethylfuran-3-carboxy(3-ethylanilide)]",0.1%
3,"Cc1cc(C(=O)Nc2cccc(C(C)C)c2)c(C)o1 [Example 21, 2,5-Dimethylfuran-3-carboxy(3-isopropylanilide)]",0%

# Same assay, conditions: impregnant concentration 0.01 % in methanol, weathering 10 cycles, 20° C., mean of 9 samples
row,SMILES,Mean weight decrease by decay (%)
1,"Clc1ccc(OCOCC#CI)cc1 [Control compound 1, 4-Chlorophenyl-3-iodopropargylformal, reference compound]",9.7%
2,"CCc1cccc(NC(=O)c2cc(C)oc2C)c1 [Example 20, 2,5-Dimethylfuran-3-carboxy(3-ethylanilide)]",0%
3,"Cc1cc(C(=O)Nc2cccc(C(C)C)c2)c(C)o1 [Example 21, 2,5-Dimethylfuran-3-carboxy(3-isopropylanilide)]",0%

# System: Coriolus versicolor
# Test: Wood preservative efficacy on impregnated Sugi sapwood: hyphal growth and maximum crushing strength
# Type: cell-based
# Set-up: key: +: No hyphal growth was observed on the test material, and no difference was found in the maximum crushing strength from the healthy wood sample.; ±: A little hyphal growth was observed on the test material, or a little decrease was found in the maximum crushing strength.; −: Hyphal growth was observed on the test material, or clear decrease was found in the maximum crushing strength
# Conditions: 0.1 w/v % methanol solution impregnated; weathering twice; 26° C., 3 weeks
# Experimental: (§1) Weathering test was repeated twice in which one cycle of the treatment was washing (about 2 liter per minute supply) with water for 5 hours, and then heating for 19 hours at 60° C. After dry air sterilization, the test samples were prepared. The test materials were placed on the flora of Coriolus versicolor which is a lignin-decomposing fungus, and of Tryomyces palustris which is a cellulose-decomposing fungus, and both of which are designated fungal species for assay of wood preservating effect. Both fungi had been previously grown on an agar medium (malt extract 2%, glucose 1% and peptone 0.5%). After the wood samples were forcedly deteriorated at 26° C. for 3 weeks, the effectiveness was determined from the degree of hyphal growth on the test material and the presence or absence of lowered maximum crushing strength. […] The wood preventive efficacy was judged by the following criteria. +: No hyphal growth was observed on the test material, and no difference was found in the maximum crushing strength from the healthy wood sample. ±: A little hyphal growth was observed on the test material, or a little decrease was found in the maximum crushing strength. −: Hyphal growth was observed on the test material, or clear decrease was found in the maximum crushing strength.
row,SMILES,"Wood preventive efficacy, Coriolus versicolor"
1,"CCOC(=O)OCC(I)=C(Br)I [Control compound 2, 3-Bromo-2,3-diiodo-2-propenylethylcarbonate, reference compound]",+
2,"CC(=O)Nc1cccc(NC(=O)c2cc(C)oc2C)c1 [Example 1, 2,5-Dimethylfuran-3-carboxy(3-acetylaminoanilide)]",±
3,"CNC(=O)c1cccc(NC(=O)c2cc(C)oc2C)c1 [Example 2, 2.5-Dimethylfuran-3-carboxy[3-(N-methylcarbamoyl)anilide]]",−
4,"Cc1cc(C(=O)Nc2cccc(C(=O)N3CCCCC3)c2)c(C)o1 [Example 3, 2,5-Dimethylfuran-3-carboxy[3-(1-piperidylcarbonyl)anilide]]",−
5,"Cc1cc(C(=O)Nc2cccc(C(=O)Nc3ccccc3)c2)c(C)o1 [Example 4, 2.5-Dimethylfuran-3-carboxyl[3-(N-phenylcarbamoyl)anilide]]",−
6,"Cc1cc(C(=O)Nc2cccc(C(=O)OC(C)(C)C)c2)c(C)o1 [Example 5, 2,5-Dimethylfuran-3-carboxy(3-tert-butoxycarbonylanilide)]",−
7,"COC(=O)c1cccc(NC(=O)c2cc(C)oc2C)c1 [Example 6, 2,5-Dimethylfuran-3-carboxy(3-methoxycarbonylanilide)]",+
8,"Cc1cc(C(=O)Nc2cccc(C(=O)c3ccccc3)c2)c(C)o1 [Example 7, 2,5-Dimethylfuran-3-carboxy(3-benzoylanilide)]",+
9,"Cc1cc(C(=O)Nc2cccc(NC(=O)c3ccccc3)c2)c(C)o1 [Example 8, 2,5-Dimethylfuran-3-carboxy(3-benzoylaminoanilide)]",±
10,"CCCCC(=O)Nc1cccc(NC(=O)c2cc(C)oc2C)c1 [Example 9, 2,5-Dimethylfuran-3-carboxy(3-valerylaminoanilide)]",−
11,"Cc1cc(C(=O)Nc2cccc(NC(=O)C3CCCCC3)c2)c(C)o1 [Example 10, 2,5-Dimethylfuran-3-carboxy(3-cyclohexylcarbonylaminoanilide)]",+
12,"COCc1cccc(NC(=O)c2cc(C)oc2C)c1 [Example 11, 2,5-Dimethylfuran-3-carboxy(3-methoxymethylanilide)]",+
13,"CCOCc1cccc(NC(=O)c2cc(C)oc2C)c1 [Example 12, 2,5-Dimethylfuran-3-carboxy(3-ethoxymethylanilide)]",±
14,"Cc1cc(C(=O)Nc2cccc(COC(C)C)c2)c(C)o1 [Example 13, 2,5-Dimethylfuran-3-carboxy(3-isopropyloxymethylanilide)]",+
15,"COc1ccc(Cc2cccc(NC(=O)c3cc(C)oc3C)c2)cc1 [Example 14, 2,5-Dimethylfuran-3-carboxy[3-(4-methoxybenzyl)anilide]]",+
16,"COC(=O)C=Cc1cccc(NC(=O)c2cc(C)oc2C)c1 [Example 15, 2,5-Dimethylfuran-3-carboxy[3-(2-methoxycarbonylvinyl)anilide]]",+
17,"CCc1cccc(NC(=O)c2cc(C)oc2C)c1 [Example 20, 2,5-Dimethylfuran-3-carboxy(3-ethylanilide)]",+
18,"Cc1cc(C(=O)Nc2cccc(C(C)C)c2)c(C)o1 [Example 21, 2,5-Dimethylfuran-3-carboxy(3-isopropylanilide)]",+
19,"CCCCCCc1cccc(NC(=O)c2cc(C)oc2C)c1 [Example 23, 2,5-Dimethylfuran-3-carboxy(3-hexylanilide)]",+
20,"CCCCc1cccc(NC(=O)c2cc(C)oc2C)c1 [Example 24, 2,5-Dimethylfuran-3-carboxy(3-butylanilide)]",+
21,"CCC(C)c1cccc(NC(=O)c2cc(C)oc2C)c1 (stereo not drawn) [Example 25, 2,5-Dimethylfuran-3-carboxy(3-sec-butylanilide)]",+
22,"CCCCCc1cccc(NC(=O)c2cc(C)oc2C)c1 [Example 26, 2,5-Dimethylfuran-3-carboxy(3-pentylanilide)]",+

# System: Tyromyces palustris
# Test: as above
# Type: cell-based
# Set-up: key: +: No hyphal growth was observed on the test material, and no difference was found in the maximum crushing strength from the healthy wood sample.; ±: A little hyphal growth was observed on the test material, or a little decrease was found in the maximum crushing strength.; −: Hyphal growth was observed on the test material, or clear decrease was found in the maximum crushing strength
# Conditions: 0.1 w/v % methanol solution impregnated; weathering twice; 26° C., 3 weeks
# Experimental: as §1
row,SMILES,"Wood preventive efficacy, Tyromyces palustris"
1,"CCOC(=O)OCC(I)=C(Br)I [Control compound 2, 3-Bromo-2,3-diiodo-2-propenylethylcarbonate, reference compound]",+
2,"CC(=O)Nc1cccc(NC(=O)c2cc(C)oc2C)c1 [Example 1, 2,5-Dimethylfuran-3-carboxy(3-acetylaminoanilide)]",−
3,"CNC(=O)c1cccc(NC(=O)c2cc(C)oc2C)c1 [Example 2, 2.5-Dimethylfuran-3-carboxy[3-(N-methylcarbamoyl)anilide]]",−
4,"Cc1cc(C(=O)Nc2cccc(C(=O)N3CCCCC3)c2)c(C)o1 [Example 3, 2,5-Dimethylfuran-3-carboxy[3-(1-piperidylcarbonyl)anilide]]",−
5,"Cc1cc(C(=O)Nc2cccc(C(=O)Nc3ccccc3)c2)c(C)o1 [Example 4, 2.5-Dimethylfuran-3-carboxyl[3-(N-phenylcarbamoyl)anilide]]",−
6,"Cc1cc(C(=O)Nc2cccc(C(=O)OC(C)(C)C)c2)c(C)o1 [Example 5, 2,5-Dimethylfuran-3-carboxy(3-tert-butoxycarbonylanilide)]",−
7,"COC(=O)c1cccc(NC(=O)c2cc(C)oc2C)c1 [Example 6, 2,5-Dimethylfuran-3-carboxy(3-methoxycarbonylanilide)]",+
8,"Cc1cc(C(=O)Nc2cccc(C(=O)c3ccccc3)c2)c(C)o1 [Example 7, 2,5-Dimethylfuran-3-carboxy(3-benzoylanilide)]",−
9,"Cc1cc(C(=O)Nc2cccc(NC(=O)c3ccccc3)c2)c(C)o1 [Example 8, 2,5-Dimethylfuran-3-carboxy(3-benzoylaminoanilide)]",−
10,"CCCCC(=O)Nc1cccc(NC(=O)c2cc(C)oc2C)c1 [Example 9, 2,5-Dimethylfuran-3-carboxy(3-valerylaminoanilide)]",−
11,"Cc1cc(C(=O)Nc2cccc(NC(=O)C3CCCCC3)c2)c(C)o1 [Example 10, 2,5-Dimethylfuran-3-carboxy(3-cyclohexylcarbonylaminoanilide)]",−
12,"COCc1cccc(NC(=O)c2cc(C)oc2C)c1 [Example 11, 2,5-Dimethylfuran-3-carboxy(3-methoxymethylanilide)]",±
13,"CCOCc1cccc(NC(=O)c2cc(C)oc2C)c1 [Example 12, 2,5-Dimethylfuran-3-carboxy(3-ethoxymethylanilide)]",±
14,"Cc1cc(C(=O)Nc2cccc(COC(C)C)c2)c(C)o1 [Example 13, 2,5-Dimethylfuran-3-carboxy(3-isopropyloxymethylanilide)]",+
15,"COc1ccc(Cc2cccc(NC(=O)c3cc(C)oc3C)c2)cc1 [Example 14, 2,5-Dimethylfuran-3-carboxy[3-(4-methoxybenzyl)anilide]]",+
16,"COC(=O)C=Cc1cccc(NC(=O)c2cc(C)oc2C)c1 [Example 15, 2,5-Dimethylfuran-3-carboxy[3-(2-methoxycarbonylvinyl)anilide]]",−
17,"CCc1cccc(NC(=O)c2cc(C)oc2C)c1 [Example 20, 2,5-Dimethylfuran-3-carboxy(3-ethylanilide)]",+
18,"Cc1cc(C(=O)Nc2cccc(C(C)C)c2)c(C)o1 [Example 21, 2,5-Dimethylfuran-3-carboxy(3-isopropylanilide)]",+
19,"CCCCCCc1cccc(NC(=O)c2cc(C)oc2C)c1 [Example 23, 2,5-Dimethylfuran-3-carboxy(3-hexylanilide)]",+
20,"CCCCc1cccc(NC(=O)c2cc(C)oc2C)c1 [Example 24, 2,5-Dimethylfuran-3-carboxy(3-butylanilide)]",+
21,"CCC(C)c1cccc(NC(=O)c2cc(C)oc2C)c1 (stereo not drawn) [Example 25, 2,5-Dimethylfuran-3-carboxy(3-sec-butylanilide)]",+
22,"CCCCCc1cccc(NC(=O)c2cc(C)oc2C)c1 [Example 26, 2,5-Dimethylfuran-3-carboxy(3-pentylanilide)]",+

# System: Coriolus versicolor
# Test: Minimum inhibitory concentration by the agar dilution method
# Type: cell-based
# Conditions: potato dextrose agar, 25° C., 5 days
# Text: (§2) Assay of minimum inhibitory concentration by the agar dilution method.
# (§3) According to the agar dilution method, on sterilized media (potato dextrose agar medium; potato extract powder 0.4%, glucose 2%, agar 1.5%) prepared to contain certain concentrations of a test sample, flora (about 4 mm in diameter) of wood rotting fungi, Coriolus versicolor and Tyromyces palustris, which has been cultured previously on the same kind of medium, were inoculated.
# (§4) Whether there is any potentiation or not has been described in Applied Microbiology 9, 538-541 (1961) by F. C. Kull et al. The assay was carried out according to the method usually employed.
row,SMILES,"MIC (ppm), single agent"
1,CCCCNC(=O)OCC#CI [B],25 ppm
2,"Clc1ccc(OCOCC#CI)cc1 [Control compound 1, 4-Chlorophenyl-3-iodopropargylformal, reference compound]",6 ppm
3,"CCOC(=O)OCC(I)=C(Br)I [Control compound 2, 3-Bromo-2,3-diiodo-2-propenylethylcarbonate, reference compound]",15 ppm
4,"CCc1cccc(NC(=O)c2cc(C)oc2C)c1 [Example 20, 2,5-Dimethylfuran-3-carboxy(3-ethylanilide)]",2.5 ppm
5,"Cc1cc(C(=O)Nc2cccc(C(C)C)c2)c(C)o1 [Example 21, 2,5-Dimethylfuran-3-carboxy(3-isopropylanilide)]",10.0 ppm

# System: Tyromyces palustris
# Test: as above
# Type: cell-based
# Conditions: potato dextrose agar, 25° C., 5 days
# Text: as §2, §3, §4
row,SMILES,"MIC (ppm), single agent"
1,CCCCNC(=O)OCC#CI [B],2.5 ppm
2,"Clc1ccc(OCOCC#CI)cc1 [Control compound 1, 4-Chlorophenyl-3-iodopropargylformal, reference compound]",2 ppm
3,"CCOC(=O)OCC(I)=C(Br)I [Control compound 2, 3-Bromo-2,3-diiodo-2-propenylethylcarbonate, reference compound]",25 ppm
4,"CCc1cccc(NC(=O)c2cc(C)oc2C)c1 [Example 20, 2,5-Dimethylfuran-3-carboxy(3-ethylanilide)]",200 ppm
5,"Cc1cc(C(=O)Nc2cccc(C(C)C)c2)c(C)o1 [Example 21, 2,5-Dimethylfuran-3-carboxy(3-isopropylanilide)]",200 ppm
